The supplement of paper PMC11061612

Key:
Test in all cases: Bliss excess, mean over the matrix (fraction); higher = more synergy
[1] = tested on: CHSA8926 (Chondrosarcoma)
Outline: (§1)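 Bliss excess equals the observed combination effect minus the expected value EA + EB − EA·EB, where EA and EB are the effects of each agent alone. Combination Emax is the second-highest inhibition within the matrix. Inhibition was scaled from CellTiter-Glo 2.0 luminescence, with 0 set by vehicle wells and 1 by blank wells, after 72 hours of two-drug dosing of cells plated in 1536-well plates.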

[2] = tested on: CW-2 (Colorectal Carcinoma)
Outline: as §1

[3] = tested on: DAN-G (Pancreatic Carcinoma)
Outline: as §1

[4] = tested on: DMS-114 (Small Cell Lung Carcinoma)
Outline: as §1

[5] = tested on: H9 (T-Cell Non-Hodgkin's Lymphoma)
Outline: as §1

[6] = tested on: HCC1187 (Breast Carcinoma)
Outline: as §1

[7] = tested on: HCC1419 (Breast Carcinoma)
Outline: as §1

[8] = tested on: JHH-4 (Hepatocellular Carcinoma)
Outline: as §1

[9] = tested on: KMS-12-BM (Plasma Cell Myeloma)
Outline: as §1

M059J (Glioblastoma) = tested on: M059J (Glioblastoma)
Outline: as §1

[10] = tested on: MOLM-13 (Acute Myeloid Leukemia)
Outline: as §1

[11] = tested on: NCCIT (Other Solid Carcinomas)
Outline: as §1

[12] = tested on: NCI-H3122 (Lung Adenocarcinoma)
Outline: as §1

[13] = tested on: NCI-H526 (Small Cell Lung Carcinoma)
Outline: as §1

RD (Rhabdomyosarcoma) = tested on: RD (Rhabdomyosarcoma)
Outline: as §1

SJSA-1 (Osteosarcoma) = tested on: SJSA-1 (Osteosarcoma)
Outline: as §1

[14] = tested on: SK-GT-2 (Gastric Carcinoma)
Outline: as §1

[15] = tested on: SNU-398 (Hepatocellular Carcinoma)
Outline: as §1

[16] = tested on: ST486 (Burkitt's Lymphoma)
Outline: as §1

[17] = tested on: VMRC-RCZ (Kidney Carcinoma)
Outline: as §1

Compound	Bliss excess [1]	Bliss excess [2]	Bliss excess [3]	Bliss excess [4]	Bliss excess [5]	Bliss excess [6]	Bliss excess [7]	Bliss excess [8]	Bliss excess [9]	Bliss excess (M059J (Glioblastoma))	Bliss excess [10]	Bliss excess [11]	Bliss excess [12]	Bliss excess [13]	Bliss excess (RD (Rhabdomyosarcoma))	Bliss excess (SJSA-1 (Osteosarcoma))	Bliss excess [14]	Bliss excess [15]	Bliss excess [16]	Bliss excess [17]
CC1(C)CCC(CN2CCN(c3ccc(C(=O)NS(=O)(=O)c4ccc(NCC5CCOCC5)c([N+](=O)[O-])c4)c(Oc4cnc5[nH]ccc5c4)c3)CC2)=C(c2ccc(Cl)cc2)C1 [Venetoclax] + C[C@@H]1COCCN1C2=NC(=NC(=C2)C3(CC3)[S@](=N)(=O)C)C4=C5C=CNC5=NC=C4 [AZD6738] (first compound max 1 µM, 7x7, partner max 10 µM)	-0.0216	0.0258	-0.0536	-0.0338	0.0113	-0.0095	-0.0479	-0.0399	-0.012	-0.0258	0.0068	-0.0355	-0.0649	0.0144	0.002	-0.0447	0.0388	-0.0662	-0.0369	-0.0262
CN(CCO)CC[C@H](CSc1ccccc1)Nc1ccc(S(=O)(=O)NC(=O)c2ccc(N3CCC([C@@H](O)c4ccccc4-c4ccc(Cl)cc4)CC3)cc2)cc1S(=O)(=O)C(F)(F)F [AZD4320] + C=CCn1c(=O)c2cnc(Nc3ccc(N4CCN(C)CC4)cc3)nc2n1-c1cccc(C(C)(C)O)n1 [AZD1775] (first compound max 1 µM, partner max 1 µM)	0.102	0.0032	0.0078	0.0074	0.0178	-0.0064	-0.0722	-0.0041	0.0716	0.0448	0.0252	0.0045	-0.0108	0.0367	0.0669	-0.0545	0.0322	-0.0291	-0.0447	-0.0418
CC1(C)CCC(CN2CCN(c3ccc(C(=O)NS(=O)(=O)c4ccc(NCC5CCOCC5)c([N+](=O)[O-])c4)c(Oc4cnc5[nH]ccc5c4)c3)CC2)=C(c2ccc(Cl)cc2)C1 [Venetoclax] + Cc1cc2ncnn2cc1Nc1ncc2c(n1)n(C1CCOCC1)c(=O)n2C [AZD7648] (first compound max 1 µM, 7x7, partner max 10 µM)	-0.0023	0.0049	-0.0106	-0.0205	-0.0194	-0.0061	-0.0116	-0.0059	0.0378	-0.0144	0.0014	-0.0326	-0.0201	0.0079	-0.0373	-0.0404	-0.0053	-0.0427	-0.0376	-0.0696
Cc1c2c(nn1C)CSCc1cc(n(C)n1)CSc1cc(c3ccccc3c1)OCCCc1c(C(=O)O)n(C)c3c-2c(Cl)ccc13 [AZD5991] + C[C@@H](Nc1cc(F)cc(F)c1)c1cc(C(=O)N(C)C)cc2c(=O)cc(N3CCOCC3)oc12 [AZD8186] (first compound max 1 µM, 7x7, partner max 3 µM)	0.091	0.0051	0.0051	-0.0338	-0.0485	-0.0176	-0.0038	-0.0164	0.0019	-0.0842	-0.0351	-0.0176	-0.0639	0.0192	0.0195	-0.105	0.015	-0.0004	-0.0659	0.0141
COc1cccc2c1C(=O)c1c(O)c3c(c(O)c1C2=O)C[C@@](O)(C(=O)CO)C[C@@H]3O[C@H]1C[C@H](N)[C@H](O)[C@H](C)O1 [Doxorubicin] + Cc1cc2ncnn2cc1Nc1ncc2c(n1)n(C1CCOCC1)c(=O)n2C [AZD7648] (first compound max 1 µM, 7x7, partner max 10 µM)	-0.0053	-0.0002	0.0173	0.0288	0.0887	0.114	-0.128	0.0376	0.0946	-0.0255	0.0551	-0.0142	0.031	0.0586	0.0368	0.0555	-0.0051	0.056	0.0895	-0.024
Cc1cc2ncnn2cc1Nc1ncc2c(n1)n(C1CCOCC1)c(=O)n2C [AZD7648] + CCN(CCO)CCCOc1ccc2c(Nc3cc(CC(=O)Nc4cccc(F)c4)[nH]n3)ncnc2c1 [AZD2811] (first compound max 10 µM, 7x7, partner max 1 µM)	-0.0331	-0.0089	0.0271	0.0309	-0.0378	-0.0446	-0.0264	0.0136	0.0266	-0.0551	-0.0314	0.0781	0.0558	0.0568	-0.0243	0.0601	0.0137	0.013	-0.0697	0.0038
COc1cccc(OCCCN)c1-c1cc(Nc2cnc(C#N)cn2)n[nH]1 [Prexasertib] + CCc1c2c(nc3ccc(O)cc13)-c1cc3c(c(=O)n1C2)COC(=O)[C@]3(O)CC [SN-38] (first compound max 1 µM, 7x7, partner max 0.3 µM)	-0.0024	-0.0035	0.0239	0.0663	-0.0004	0.164	-0.0098	-0.0289	0.0381	-0.0373	0.0073	0.0269	-0.002	-0.0164	0.065	-0.129	0.034	0.0441	0.0412	0.0578
COc1nnc2ccc(N3CCC(c4ccc(OCCN5CCN(C)C(=O)[C@H]5C)cc4)CC3)nn12 [AZD5153] + C[C@@H]1COCCN1C2=NC(=NC(=C2)C3(CC3)[S@](=N)(=O)C)C4=C5C=CNC5=NC=C4 [AZD6738] (first compound max 1 µM, 7x7, partner max 10 µM)	0.0437	0.0277	0.0374	0.0184	-0.0108	0.0265	-0.0517	0.134	-0.0167	-0.0647	-0.0068	-0.0702	-0.0382	-0.044	0	-0.0398	0.0773	0.0758	-0.0692	0.0926
Cn1cnc2c(F)c(Nc3ccc(Br)cc3Cl)c(C(=O)NOCCO)cc21 [Selumetinib] + C=CCn1c(=O)c2cnc(Nc3ccc(N4CCN(C)CC4)cc3)nc2n1-c1cccc(C(C)(C)O)n1 [AZD1775] (first compound max 10 µM, partner max 1 µM)	-0.0377	-0.005	0.014	-0.0351	-0.0037	-0.0201	-0.0697	-0.0782	-0.0355	-0.0499	-0.0414	-0.0826	-0.126	-0.052	-0.0128	-0.0275	-0.0872	0.0182	0.0165	-0.066
CCN(CCO)CCCOc1ccc2c(Nc3cc(CC(=O)Nc4cccc(F)c4)[nH]n3)ncnc2c1 [AZD2811] + C[C@@H]1COCCN1C2=NC(=NC(=C2)C3(CC3)[S@](=N)(=O)C)C4=C5C=CNC5=NC=C4 [AZD6738] (first compound max 1 µM, 7x7, partner max 10 µM)	-0.0037	-0.0116	-0.0427	-0.0301	-0.0673	-0.0841	-0.0757	-0.0341	0.0141	-0.0138	-0.0161	-0.0506	-0.063	-0.0178	-0.0325	-0.0348	-0.0272	0.007	-0.0205	-0.085
CN(CCO)CC[C@H](CSc1ccccc1)Nc1ccc(S(=O)(=O)NC(=O)c2ccc(N3CCC([C@@H](O)c4ccccc4-c4ccc(Cl)cc4)CC3)cc2)cc1S(=O)(=O)C(F)(F)F [AZD4320] + C1CN(CCC1(C(=O)N[C@@H](CCO)C2=CC=C(C=C2)Cl)N)C3=NC=NC4=C3C=CN4 [Capivasertib] (first compound max 1 µM, 7x7, partner max 3 µM)	-0.0059	-0.0284	-0.0354	-0.0066	0.0026	-0.0276	0.0421	-0.0411	0.0181	-0.0113	-0.0169	0.0224	-0.0613	-0.0075	-0.0764	0.0243	-0.0158	-0.032	-0.0345	-0.0429
CC1(C)CCC(CN2CCN(c3ccc(C(=O)NS(=O)(=O)c4ccc(NCC5CCOCC5)c([N+](=O)[O-])c4)c(Oc4cnc5[nH]ccc5c4)c3)CC2)=C(c2ccc(Cl)cc2)C1 [Venetoclax] + C[C@@H](Nc1cc(F)cc(F)c1)c1cc(C(=O)N(C)C)cc2c(=O)cc(N3CCOCC3)oc12 [AZD8186] (first compound max 1 µM, 7x7, partner max 3 µM)	0.0214	-0.007	-0.0346	-0.0297	-0.0159	-0.0069	-0.0316	0.0064	0.0494	-0.0141	0.0046	-0.0336	-0.0311	0.033	0.0032	-0.0247	-0.0271	-0.0201	-0.0686	-0.0215
CC1(C)CCC(CN2CCN(c3ccc(C(=O)NS(=O)(=O)c4ccc(NCC5CCOCC5)c([N+](=O)[O-])c4)c(Oc4cnc5[nH]ccc5c4)c3)CC2)=C(c2ccc(Cl)cc2)C1 [Venetoclax] + C=CCn1c(=O)c2cnc(Nc3ccc(N4CCN(C)CC4)cc3)nc2n1-c1cccc(C(C)(C)O)n1 [AZD1775] (first compound max 1 µM, partner max 1 µM)	-0.0333	-0.0091	-0.0114	0.0056	-0.0295	-0.0522	-0.0261	-0.0538	0.0356	-0.0663	0.0122	0.0522	-0.0505	-0.0183	-0.0163	-0.0733	0.0014	0.0035	0.108	0.0418
CC1(C)CCC(CN2CCN(c3ccc(C(=O)NS(=O)(=O)c4ccc(NCC5CCOCC5)c([N+](=O)[O-])c4)c(Oc4cnc5[nH]ccc5c4)c3)CC2)=C(c2ccc(Cl)cc2)C1 [Venetoclax] + Cn1cnc2c(F)c(Nc3ccc(Br)cc3Cl)c(C(=O)NOCCO)cc21 [Selumetinib] (first compound max 1 µM, 7x7, partner max 3 µM)	-0.0455	0.0239	-0.0459	-0.0371	0.0054	-0.0161	-0.0413	-0.0402	-0.0118	-0.0391	0.0783	-0.0252	-0.0309	-0.011	-0.0425	-0.0431	-0.0251	-0.0003	-0.141	-0.0422
